The term MIC denotes the least concentration at which growth counts as inhibited. The IC50 is the concentration that inhibits the measured activity by half.

Values after ≈ are worked out from the molar mass of the structure shown. Active and inactive are the calls of the source. The calls are words filed in the database; no cut-off is given here.

The test system of series [1] is Staphylococcus aureus. The series is described as follows: Antibacterial activity against methicillin-resistant Staphylococcus aureus USA300 assessed as bacterial growth inhibition measured by two-fold serial microdilution method. The format is functional.
Series [2] deals with Mycobacterium tuberculosis. Nature of the series: Antitubercular activity against Mycobacterium tuberculosis H37Ra assessed as bacterial growth inhibition in the presence of 7H10/OADC medium. The format is functional.
Series [3] deals with Staphylococcus aureus. The series is described as follows: Antibacterial activity against methicillin-resistant Staphylococcus aureus USA300 infected in Caenorhabditis elegans N2 worms assessed as worms survival at 5 ug/ml measured after 4 days. The format is functional. The settings on record: dose 5 µg/ml; time 4 day.
The subject of series [4] is Staphylococcus aureus. Nature of the series: Antibacterial activity against methicillin-resistant Staphylococcus aureus USA300 assessed as bacterial growth inhibition in CAMH medium measured by two-fold serial microdilution method. The format is functional.
Series [5] has as its system Staphylococcus aureus. Nature of the series: Antibacterial activity against methicillin-resistant Staphylococcus aureus USA300 infected in Caenorhabditis elegans N2 worms assessed as worms survival at 25 ug/ml measured after 4 days. The format is functional. The settings on record: dose 25 µg/ml; time 4 day.
Series [6] concerns the target T1, 1,4-dihydroxy-2-naphthoate octaprenyltransferase (Mycobacterium tuberculosis, UniProt P9WIP3).
T1 sequence (P9WIP3 whole entry): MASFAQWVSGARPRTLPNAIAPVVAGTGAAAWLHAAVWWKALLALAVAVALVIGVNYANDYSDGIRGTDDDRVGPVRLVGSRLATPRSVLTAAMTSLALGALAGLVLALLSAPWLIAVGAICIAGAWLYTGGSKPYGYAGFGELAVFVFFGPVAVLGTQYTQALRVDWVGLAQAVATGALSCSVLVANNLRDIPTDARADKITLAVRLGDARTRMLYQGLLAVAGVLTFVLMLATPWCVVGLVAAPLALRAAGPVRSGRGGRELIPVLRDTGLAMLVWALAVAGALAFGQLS
The series is described as follows: Inhibition of Mycobacterium tuberculosis MenA.

For series [7], the system named is Staphylococcus aureus. Nature of the series: Bactericidal activity against methicillin-resistant Staphylococcus aureus USA300 assessed as log10 reduction in microbial growth at 8 ug/ml in presence of menaquinone, MK4 measured after 8 hrs by time kill assay curve based analysis. The settings on record: dose 8 µg/ml. The format is functional.
Series [8] concerns Staphylococcus aureus. The series is described as follows: Antibacterial activity against methicillin-resistant Staphylococcus aureus USA300 infected in Caenorhabditis elegans N2 worms assessed as worms killing at 5 ug/ml measured after 4 days. The format is functional. The settings on record: dose 5 µg/ml; time 4 day.
The test system of series [9] is Staphylococcus aureus. The series is described as follows: Antibacterial activity against methicillin-resistant Staphylococcus aureus USA300 infected in Caenorhabditis elegans N2 worms assessed as worms killing at 25 ug/ml measured after 4 days. Particulars: dose 25 µg/ml; time 4 day. The format is functional.
Series [10] relates to Staphylococcus aureus. Nature of the series: Bactericidal activity against methicillin-resistant Staphylococcus aureus USA300 assessed as eradication in population size at 8 to 16 ug/ml measured after 2 hrs by time kill assay curve based analysis. The format is functional, organism-based. The settings on record: dose 8-16 µg/ml.
Series [11] has as its system Staphylococcus aureus. The series is described as follows: Antibacterial activity against methicillin-resistant Staphylococcus aureus USA300 assessed as bacterial growth inhibition at 8 ug/ml measured by two-fold serial microdilution method. The format is functional, organism-based. Particulars: dose 8.0 µg/ml. (Broth dilution looks for growth in wells or tubes with falling amounts of substance.)

Series [12] has as its system Staphylococcus aureus. Nature of the series: Antibacterial activity against methicillin-resistant Staphylococcus aureus USA300 assessed as bacterial growth inhibition at 8 ug/ml incubated for 24 hrs in presence 100 ug/ml of menaquinone, MK4 measured by two-fold serial microdilution method. The format is functional, organism-based. Particulars: dose 8.0 µg/ml.
In series [13] the test system is Staphylococcus aureus. The series is described as follows: Bactericidal activity against methicillin-resistant Staphylococcus aureus USA300 at 16 ug/ml measured for 48 hrs in presence of menaquinone, MK4 by time kill assay curve based analysis. The format is functional. The settings on record: dose 16 µg/ml.
The subject of series [14] is Mycobacterium tuberculosis. The series is described as follows: Antitubercular activity against Mycobacterium tuberculosis H37Rv. The format is functional.
Series [15] addresses T1, 1,4-dihydroxy-2-naphthoate octaprenyltransferase. The series is described as follows: Competitive inhibition of Mycobacterium tuberculosis H37Rv membrane MenA using DHNA as a substrate in presence of [1-3H]FPP or [1-3H]GGPP. The format is cell membranes.
The nature of series [16]: Drug uptake in Balb/cJ mouse lungs at 200 ug INH administered for 4 days and measured on day 5 by reverse-phase HPLC analysis. The format is ADME, tissue-based, Lung. Particulars: in vivo, 120 h, at 200 µg, time 5 day.
Series [17] is described as follows: Toxicity in Balb/cJ mouse assessed as effect on lung damage at 10 mg/kg, INH administered for 4 days and measured on day 5 by H and E staining microscopic analysis. The format is organism-based. Particulars: in vivo, inhaled_or_intranasal, 120 h, time 5 day.
Series [18] can be described thus: Toxicity in Balb/cJ mouse assessed as drug tolerability at 200 ug INH administered for 4 days. The settings on record: in vivo, inhaled_or_intranasal, 96 h, at 200 µg, time 4 day.
Series [19] in a line: Toxicity in Balb/cJ mouse assessed as body weight loss at 200 ug INH administered for 4 days and observed on day 5. The settings on record: in vivo, inhaled_or_intranasal, 120 h, dose 200 µg, time 5 day.
A short description of series [20]: Toxicity in Balb/cJ mouse assessed as effect on lung inflammation at 10 mg/kg, INH administered for 4 days and measured on day 5 by H and E staining microscopic analysis. Particulars: in vivo, inhaled_or_intranasal, 120 h, time 5 day. The format is organism-based.

Turning to `CC(C)=CCC/C(C)=C/CC/C(C)=C/CNC1CC1`, in the series on Staphylococcus aureus [1], the MIC is 16 µg/mL (≈ 61.2 µM).
With `CC(C)=CCC/C(C)=C/CC/C(C)=C/CN1CCCCC1`, the MIC was 32 µg/mL (≈ 111 µM) in the series on Staphylococcus aureus [1] and 8 µg/mL in series [2].
Turning to `O=[N+]([O-])c1ccc(OCCCCCCCCOc2ccc([N+](=O)[O-])cc2)cc1`, the MIC in the series with Staphylococcus aureus [1] came to 64 µg/mL (≈ 165 µM).
Still for that read-out and setting: the value for `CC(C)=CCC/C(C)=C/CNCCc1ccc(F)cc1` was 32 µg/mL (≈ 116 µM).
Regarding `Fc1ccc(CCNCCCOc2ccc3ccc(OCCCNCCc4ccc(F)cc4)cc3c2)cc1`, the results for the Activity in the series with Staphylococcus aureus [3], with Staphylococcus aureus [4] and in the series with Staphylococcus aureus [5] were 71%, 3 µg/mL and 78%, respectively.
On to `COc1ccc2ccc(OCCCCCCCCN3CCCCC3)cc2c1`, for which half-maximal inhibition in series [6] (IC50) was put at 13.5 µM. Further, in the series with Staphylococcus aureus [4], the Activity came to 16 µg/mL.
For the compound `CC(=O)NC[C@H]1CN(c2ccc(N3CCOCC3)c(F)c2)C(=O)O1` [LINEZOLID], in the series on Staphylococcus aureus [1], the minimal inhibitory concentration (MIC) worked out at 1 µg/mL (≈ 2.96 µM).
Same read-out and setting: the value for `COc1ccc2ccc(OCCCOCC=C(C)C)cc2c1` was over 256 µg/mL.
For the compound `CC(C)=CCC/C(C)=C/CNC1CCCC1`, the MIC with Staphylococcus aureus [1] was determined as 128 µg/mL (≈ 578 µM); in series [2], 64 µg/mL.
Consider `Fc1ccc(CNCCCCCCCCNCc2ccc(F)cc2)cc1`, for which the MIC in the series with Staphylococcus aureus [1] worked out at 64 µg/mL (≈ 178 µM).
On to `CC(C)=CCC/C(C)=C/CC/C(C)=C/CNCCc1ccc(F)cc1`, for which the Activity is 3.5 log10CFU/ml in the series on Staphylococcus aureus [7], 83% with Staphylococcus aureus [8], 100% in the series on Staphylococcus aureus [9] and 100% in the series with Staphylococcus aureus [13]. Further, the MIC is 8 µg/mL (≈ 23.3 µM) with Staphylococcus aureus [1] and 4 µg/mL in series [2]. Also, the result in the series on Staphylococcus aureus [10] and in the series with Staphylococcus aureus [11] was Active. For the same compound, the result in the series on Staphylococcus aureus [12] was inactive.
For `Fc1ccc(CCNCCCCCCCCNCCc2ccc(F)cc2)cc1`, the figures for the MIC (with Staphylococcus aureus [1]; in series [2]) were 16 µg/mL (≈ 41.2 µM) and 32 µg/mL, respectively.
Compound `C=CCN(C)C/C=C(\C)CC/C=C(\C)CCC=C(C)C` displayed an MIC in series [14] of 6.1 µg/mL (≈ 22.1 µM). Further, the IC50 in [15] was 20 µM.
The like results for `CC(C)=CCC/C(C)=C/CC/C(C)=C/COC(=O)C(N)CC(=O)O` (stereo not given) were, in that order, 12.5 µg/mL (≈ 37 µM) and 5.33 µM.
As for `COc1ccc2ccc(OCCCCCCCCOCC=C(C)C)cc2c1`, the MIC in the series on Staphylococcus aureus [1] is over 256 µg/mL.
Regarding `CC(C)=CCC/C(C)=C/CC/C(C)=C/CNC1CCCC1`, in the series with Staphylococcus aureus [1], the MIC was found to be 16 µg/mL (≈ 55.3 µM).
`C=CCN(C)CCCCCCCCOc1ccc2ccc(OC)cc2c1` returned a Drug uptake in series [16] of 32.4%. Besides, the outcome in the series on Staphylococcus aureus [1] was Active. The Activity entry was “Non-Toxic” in series [17]; 100% in series [18]; 16 µg/mL with Staphylococcus aureus [4]; “Non-Toxic” in series [19]; “Non-Toxic” in series [20]. The same compound had an IC50 in [6] of 16.9 µM.
Regarding `O=[N+]([O-])c1ccc(OCCCCCCCCNCCc2ccc(F)cc2)cc1`, the MIC with Staphylococcus aureus [1] is 8 µg/mL (≈ 20.6 µM); in series [2], 16 µg/mL.
The matching figures for `CC(C)=CCC/C(C)=C/CNC1CC1`: over 128 µg/mL and over 128 µg/mL.
In the case of `CC(C)=CCC/C(C)=C/CN1CCCCC1`, in the series on Staphylococcus aureus [1], the MIC worked out at 64 µg/mL (≈ 289 µM).

The record behind these values is ChEMBL document CHEMBL4819151, “Synthesis, optimization, in vitro and in vivo study of bicyclic substituted amine as MenA inhibitor” (Bioorg Med Chem Lett, 2021).
